These results are taken from patent US20260085058A1, “DEGRADERS OF SON OF SEVENLESS HOMOLOG 1” (H. LEE MOFFITT CANCER CENTER AND RESEARCH INSTITUTE, INC., priority 2022, published 2026).

For this assay, the target named is T1, SOS1 (Homo sapiens, UniProt Q07889).
T1 sequence (Q07889 1-1333): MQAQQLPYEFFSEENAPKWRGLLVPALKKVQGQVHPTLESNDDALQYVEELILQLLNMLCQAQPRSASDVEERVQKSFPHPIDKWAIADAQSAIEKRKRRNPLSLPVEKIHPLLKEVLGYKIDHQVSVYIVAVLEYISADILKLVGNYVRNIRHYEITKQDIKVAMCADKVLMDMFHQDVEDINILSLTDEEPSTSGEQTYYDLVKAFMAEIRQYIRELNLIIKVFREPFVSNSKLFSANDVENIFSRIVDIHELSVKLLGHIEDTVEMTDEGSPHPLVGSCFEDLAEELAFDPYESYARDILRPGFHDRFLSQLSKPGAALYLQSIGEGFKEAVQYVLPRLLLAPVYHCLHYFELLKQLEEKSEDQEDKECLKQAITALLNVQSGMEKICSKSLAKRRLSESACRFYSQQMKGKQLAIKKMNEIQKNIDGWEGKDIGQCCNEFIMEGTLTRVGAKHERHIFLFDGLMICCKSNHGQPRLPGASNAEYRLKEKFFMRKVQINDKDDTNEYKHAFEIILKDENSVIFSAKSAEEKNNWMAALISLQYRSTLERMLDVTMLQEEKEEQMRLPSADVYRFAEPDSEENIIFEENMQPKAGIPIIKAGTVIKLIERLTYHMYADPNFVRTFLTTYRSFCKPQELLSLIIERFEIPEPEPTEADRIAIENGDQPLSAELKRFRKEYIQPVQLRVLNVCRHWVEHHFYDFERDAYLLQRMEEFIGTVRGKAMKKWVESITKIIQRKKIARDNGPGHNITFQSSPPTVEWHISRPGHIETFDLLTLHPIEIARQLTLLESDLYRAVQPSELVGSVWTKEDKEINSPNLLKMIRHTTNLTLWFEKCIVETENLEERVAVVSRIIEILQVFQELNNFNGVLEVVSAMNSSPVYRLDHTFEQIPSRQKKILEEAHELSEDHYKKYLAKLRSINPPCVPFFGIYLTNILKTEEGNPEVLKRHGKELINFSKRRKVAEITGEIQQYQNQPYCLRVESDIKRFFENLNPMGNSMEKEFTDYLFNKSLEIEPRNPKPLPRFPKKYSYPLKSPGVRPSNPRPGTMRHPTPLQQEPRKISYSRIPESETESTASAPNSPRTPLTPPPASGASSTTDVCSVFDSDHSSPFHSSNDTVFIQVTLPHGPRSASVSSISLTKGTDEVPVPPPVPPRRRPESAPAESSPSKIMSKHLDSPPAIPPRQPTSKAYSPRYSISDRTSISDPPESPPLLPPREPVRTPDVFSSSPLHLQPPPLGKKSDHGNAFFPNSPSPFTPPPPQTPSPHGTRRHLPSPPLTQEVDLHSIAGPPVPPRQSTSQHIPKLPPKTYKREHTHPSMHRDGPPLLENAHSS
Briefly: SOS1 degradation by immunoblot in colorectal cancer cell lines. The assay is classed as cell-based. More on the design: endogenous in cells; host or cells: SW620, HCT116, C2BB, SW1417. The settings on record: SW620 cells, 1 μM, different time points. As to the method: SW620, HCT116, C2BB, and SW1417 were purchased from the American Type Culture Collection. […] They were incubated under a 5% (v/v) CO2 atmosphere at 37° C.
Cells were plated in a 100 mm dish for incubation overnight before harvest for immunoblot. For drug treatment, cell confluency was checked prior to proceeding with the treatment. […] Approximately 40 μg protein samples were loaded into each well and separated by SDS-PAGE gel. After protein transfer onto nitrocellulose membranes, 5% skim milk in TBST was used to block the membranes for 1 hour at room temperature prior to incubation with primary antibodies overnight at 4° C. At the completion, a horseradish peroxidase-conjugated secondary antibody was applied at room temperature for 1 hour. The bands were visualized using Western Lightning Plus-ECL (PerkinElmer).
A general note: Immunoblotting shows a protein as a band on a membrane.

As to `COc1cc2c(N[C@H](C)c3cc(N)cc(C(F)(F)F)c3)nc(C)nc2cc1OCc1cccc2c1C(=O)N(C1CCC(=O)NC1=O)C2=O` (stereo partly drawn) [P2, 4-(((4-(((R)-1-(3-amino-S-(trifluoromethyl)phenyl)ethyl)amino)-6-methoxy-2-methylquinazolin-7-yl)oxy)methyl)-2-(2,6-dioxopiperidin-3-yl)isoindoline-1,3-dione], the “Time-dependent SOS1 degradation” value was “not observed”.
